{"source": "patent US8486463B1", "about": "“Cosmetic composition comprising aloe vera and caprylyl salicylic acid and method of making” (L'Oreal, priority 2012, dated 2013)", "origin": "cited, not measured here", "details": "based on temperature and purity level"}
{"smiles": "O", "note": "[water]", "values": [{"measurement": "pH", "result": 7}, {"measurement": "surface tension", "result": 55.73, "unit": "dyne/cm"}]}
